Measurements taken from patent publication US11173144B2, “Adrenergic receptor modulating compounds and methods of using the same” (The Board of Trustees of the Leland Stanford Junior …, priority 2016, dated 2021).
Where two headings read alike, the source gives them in different places.

Assays:
[1] = tested on: heart rate and blood pressure; experiment: Cardiovascular studies (heart rate and blood pressure) in anesthetized rats; type: in vivo, Sprague-Dawley rats; conditions: 3 mg/kg subcutaneous
Description: Adult rats are anesthetizes using isoflurane and are accommodated on a heated platform warmed to 36° C. A jugular catheter (for IV administration of the drug) and an intra-arterial catheter (tail artery, for blood pressure measurements) are implanted under 2.5% isoflurane. To avoid clotting, all animals received a single dose of heparin after intravenous cannulation. Intra-arterial catheter was then connected to a pressure transducer coupled to a computerized data acquisition system (PowerLab) and its application software (LabChart 8)[AD Instruments (Australia)]. Mean blood pressure and the hear rate was analyzed and plotted using prism software.
Briefly, rats are anesthetized with 3-4% isoflurance and 1 cm longitudinal incision is made on the ventral aspect of the tail exposing the tail artery. Polyethylene catheter (PE50) filled with heparinized saline is then inserted into the tail artery and connected to blood pressure transducer system. After assuring absence of any air bubbles, 5-10 min of baseline systolic and diastolic blood pressure along with heart rate are recorded using LabChart Pro (AD Instruments).
FIG. 9 illustrates the effect of exemplary compounds on average heart rate in a rat in comparison with reference compounds isoprenaline and ICI 118,551. FIG. 10 illustrates the effect of exemplary compounds on blood pressure in a rat in comparison with reference compounds isoprenaline and ICI 118,551.

ADRB1 = ADRB1 (Homo sapiens (Human), UniProt P08588); experiment: cAMP assay (homogenous time-resolved fluorescence) in HEK-293 cells stably expressing human recombinant ADRB1; type: cell-based; conditions: Table 4
Sequence of ADRB1 (P08588 whole entry): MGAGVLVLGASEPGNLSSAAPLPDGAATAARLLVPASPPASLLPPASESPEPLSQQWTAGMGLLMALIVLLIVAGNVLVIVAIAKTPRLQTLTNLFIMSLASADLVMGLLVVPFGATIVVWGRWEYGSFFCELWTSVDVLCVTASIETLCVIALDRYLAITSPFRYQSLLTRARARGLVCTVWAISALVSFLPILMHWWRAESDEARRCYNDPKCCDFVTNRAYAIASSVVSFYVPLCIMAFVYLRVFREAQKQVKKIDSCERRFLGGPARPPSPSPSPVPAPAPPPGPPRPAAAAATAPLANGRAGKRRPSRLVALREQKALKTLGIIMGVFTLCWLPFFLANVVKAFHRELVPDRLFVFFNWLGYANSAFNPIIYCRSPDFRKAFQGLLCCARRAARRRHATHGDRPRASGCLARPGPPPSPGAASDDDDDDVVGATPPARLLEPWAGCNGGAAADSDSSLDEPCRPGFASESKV
Description: Pharmacological effects of compounds at the cAMP pathway mediated by ADRB1 are evaluated by measuring cAMP production using the homogenous time-resolved fluorescence detection method with HEK-293 cells stably expressing human recombinant ADRB1. Briefly, cells are suspended in HBSS buffer completed with 20 mM HEPES (pH 7.4) and 500 μM IBMX (3-isobutyl-1-methylxanthine) and distributed at a density of 3×10^3 cells/well. […] The results are expressed as a percent of the maximum efficacy achieved with isoproterenol. Pharmacological effects of compounds at the cAMP pathway mediated by ADRB2 and ADRB3 are measured as described above using CHO cells stably expressing human recombinant ADRB2 and human SK-N-MC neurotumor cells endogenously expressing ADRB3, respectively.
After 30 minute incubation with compounds, the cells are lysed and the fluorescence donor (Europium-chelated-labeled cAMP tracer; Eu-cAMP tracer) and fluorescence acceptor (cAMP-specific monoclonal antibodies labeled with the ULight™ dye) are added. […] The results are expressed as a percent of the control response to 10 μM isoproterenol. For subtype selectivity determination, same procedure is performed using Chinese hamster ovary (CHO) cells stably expressing human β2-adrenergic receptors or SK-N-MC human neuroblastoma cell line expressing β3-adrenergic receptors.
ADRB1 EC50 from functional assay (nM)^a, Determined using the homogenous time-resolved fluorescence detection method with HEK-293 cells stably expressing human recombinant ADRB1. ADRB2 IC50 from binding assay(nM)^b, Determined using the Tag-lite Adrenoceptor Beta2 receptor ligand binding assay.

[2] = tested on: LPS-induced TNF-α response; experiment: In vivo LPS assay; design: species or system C57BI/6J mice; conditions: mice, 3 mg/kg 15 min prior to LPS, 90 min post-LPS
Description: Amplification is performed using StepOnePlus (Applied Biosystems).
Following injections, mice are single-housed. At 90 min post-LPS/saline, mice are deeply anesthetized with isoflurane and blood is collected from the right ventricle via cardiac puncture (23 g needle) into lithium heparin-containing vials (BD microtainer plasma tubes). Plasma is separated by centrifugation (11,000 rpm for 3 minutes) within 30 min of collection and stored at −80° C. until analysis. The concentration of TNF-α in the collected plasma is measured by ELISA (Invitrogen, KMC3012) according to the manufacturer's instruction.

α1A adrenergic receptor = α1A adrenergic receptor (Homo sapiens (Human), UniProt P35348); experiment: CNS target panel screen: α1A adrenergic receptor; type: binding
Sequence of α1A adrenergic receptor (P35348 whole entry): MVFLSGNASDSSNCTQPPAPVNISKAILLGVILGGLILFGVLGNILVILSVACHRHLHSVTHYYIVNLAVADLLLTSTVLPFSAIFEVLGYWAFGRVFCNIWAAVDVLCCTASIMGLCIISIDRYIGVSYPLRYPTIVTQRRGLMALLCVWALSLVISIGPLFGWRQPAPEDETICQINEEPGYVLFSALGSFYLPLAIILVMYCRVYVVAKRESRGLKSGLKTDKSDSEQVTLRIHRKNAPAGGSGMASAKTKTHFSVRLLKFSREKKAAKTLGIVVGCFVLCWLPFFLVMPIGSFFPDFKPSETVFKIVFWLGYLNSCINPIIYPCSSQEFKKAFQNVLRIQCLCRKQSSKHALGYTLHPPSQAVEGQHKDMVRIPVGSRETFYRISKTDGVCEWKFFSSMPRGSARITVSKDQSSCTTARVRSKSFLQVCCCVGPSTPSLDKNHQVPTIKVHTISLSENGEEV
Text: (§1) From a drug development perspective, characterizing the off-target effects of lead compounds is an important issue, as interactions with off-target molecules may lead to undesirable side effects. Thus we screened xamoterol (S) and the key compound compound 43 against a panel of CNS relevant targets, including G-protein coupled receptor and transporters. […].

[3] = Pharmacokinetic study, 4 hour time course; type: in vivo, Sprague-Dawley rats; conditions: rat; for AUC(0-inf) / Cmax / bioavailability: Sprague-Dawley, 10 mg/kg; for AUC(0-inf): AUCinf
Description: Two cohorts of Sprague-Dawley rats are used in two independent studies. All animals are fasted overnight before the experiment with free access to water. In study 1, a total of 18 rats are used for a 4 h time course pharmacokinetic (PK) study. […] On the day of the experiment, xamoterol is freshly prepared in saline. […] Four hours post-dose, rats are deeply anesthetized with isoflurane and blood samples are collected by cardiac puncture. In study 2, a total of 18 rats are used for a 20 min post-dose collection study. […] At 20 min post-dose, rats are deeply anesthetized with isoflurane and blood samples are collected by cardiac puncture. Brains are collected after perfusion with phosphate buffered saline. […] LC separation is carried out on a Phenomenex Synergi Polar-RP column (2.5 μm, 2 mm×50 mm) with a flow rate of 0.25 ml/min at room temperature. Mobile phase A consisted of 10 mM ammonium acetate and 0.1% formic acid in LCMS grade water. Mobile phase B consisted of 10 mM ammonium acetate and 0.1% formic acid in LCMS grade acetonitrile: water 90:10% (v/v). […] Five μl of the extracted samples is injected. The mass spectrometer is operated in the positive mode with multiple-reaction monitoring (MRM) with the transition m/z 334.1→210.1 and 334.1→100.2.

5-HT2B = 5-HT2B (Homo sapiens (Human), UniProt P41595); experiment: CNS target panel screen: 5-HT2B; type: binding
Sequence of 5-HT2B (P41595 whole entry, species assumed): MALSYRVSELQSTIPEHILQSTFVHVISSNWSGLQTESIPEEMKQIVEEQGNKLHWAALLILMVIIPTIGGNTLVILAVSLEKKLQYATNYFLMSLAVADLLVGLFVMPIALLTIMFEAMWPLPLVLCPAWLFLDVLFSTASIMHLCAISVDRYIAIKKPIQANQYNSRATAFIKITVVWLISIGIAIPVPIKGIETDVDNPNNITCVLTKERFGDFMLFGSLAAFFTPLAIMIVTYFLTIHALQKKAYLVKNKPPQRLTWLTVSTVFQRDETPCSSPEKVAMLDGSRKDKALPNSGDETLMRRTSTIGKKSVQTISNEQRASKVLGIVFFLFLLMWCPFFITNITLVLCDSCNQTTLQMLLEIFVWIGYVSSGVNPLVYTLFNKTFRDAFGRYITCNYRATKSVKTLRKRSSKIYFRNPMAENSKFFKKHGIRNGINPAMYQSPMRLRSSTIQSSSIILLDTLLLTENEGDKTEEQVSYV
Text: From a drug development perspective, characterizing the off-target effects of lead compounds is an important issue, as interactions with off-target molecules may lead to undesirable side effects. Thus we screened xamoterol (S) and the key compound compound 43 against a panel of CNS relevant targets, including G-protein coupled receptor and transporters.

5-HT1A = 5-HT1A (Homo sapiens (Human), UniProt P08908); experiment: CNS target panel screen: 5-HT1A; type: binding
Sequence of 5-HT1A (P08908 whole entry, species assumed): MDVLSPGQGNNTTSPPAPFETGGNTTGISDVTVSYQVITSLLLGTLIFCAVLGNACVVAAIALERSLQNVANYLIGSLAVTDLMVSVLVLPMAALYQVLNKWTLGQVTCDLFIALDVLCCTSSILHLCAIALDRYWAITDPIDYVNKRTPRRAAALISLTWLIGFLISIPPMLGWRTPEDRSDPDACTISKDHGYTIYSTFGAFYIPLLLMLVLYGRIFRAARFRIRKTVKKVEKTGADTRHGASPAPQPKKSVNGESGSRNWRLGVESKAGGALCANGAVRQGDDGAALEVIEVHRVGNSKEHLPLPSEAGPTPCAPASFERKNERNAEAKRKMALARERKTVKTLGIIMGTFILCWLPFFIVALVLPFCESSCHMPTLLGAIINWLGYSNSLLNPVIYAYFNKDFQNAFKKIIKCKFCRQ
Text: as §1

D3 dopaminergic receptor = D3 dopaminergic receptor (Homo sapiens (Human), UniProt P35462); experiment: CNS target panel screen: D3 dopaminergic receptor; type: binding
Sequence of D3 dopaminergic receptor (P35462 whole entry): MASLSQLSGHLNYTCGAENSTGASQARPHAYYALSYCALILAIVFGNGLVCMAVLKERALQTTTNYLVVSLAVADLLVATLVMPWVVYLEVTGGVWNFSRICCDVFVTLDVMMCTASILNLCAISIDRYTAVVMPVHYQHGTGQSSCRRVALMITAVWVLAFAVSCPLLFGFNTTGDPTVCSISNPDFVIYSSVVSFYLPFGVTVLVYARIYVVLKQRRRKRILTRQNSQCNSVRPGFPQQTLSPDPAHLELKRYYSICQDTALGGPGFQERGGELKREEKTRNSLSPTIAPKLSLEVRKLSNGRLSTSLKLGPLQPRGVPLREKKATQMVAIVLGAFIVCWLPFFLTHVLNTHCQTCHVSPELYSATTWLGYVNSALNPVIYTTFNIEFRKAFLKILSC
Text: as §1

[4] = Microsomal stability assay, mouse; conditions: 0.1 uM

Structure (SMILES)	effect on blood pressure [1]	effect on heart rate [1]	AUC(0-inf) ([3]; in vivo, ip)	Cmax ([3]; in vivo, ip, Cmax)	AUC(0-inf) ([3]; in vivo, iv)	Cmax ([3]; in vivo, iv, Cmax)	bioavailability ([3]; in vivo, po)	also measured
COc1ccccc1OCCNC[C@H](O)COc1ccc(O)cc1 [Compound 43]	significant reduction	did not produce significant effects	2160 ± 310 ng·h/mL	762 ± 67 ng/mL	1800 ± 256 ng·h/mL	4000 ± 1110 ng/mL	6%	Emax (ADRB1; HEK293, 0.5 h, percent efficacy compared to the maximum response achieved with isoproterenol, read-out: cAMP pathway % Iso max): 83.3 ± 15.7%; EC50 (ADRB1; read-out: cAMP pathway ADRB1 EC50): 10 to 100 nM; LPS-induced TNF-α response in periphery (plasma) [2]: markedly inhibited; LPS-induced inflammatory response in the brain (TNF-α, IL-1β, IL-6 gene expression) [2]: attenuated; affinity for α1A adrenergic receptor (α1A adrenergic receptor): significant affinity; Cmax ([3]; in vivo, po, 10 mg/kg PO - Portal vein, read-out: Cmax): 946 ng/mL; Cmax ([3]; in vivo, po, 10 mg/kg PO - Systemic (jugular vein), read-out: Cmax): 116 ng/mL; time of maximum concentration in systemic plasma ([3]; 10 mg/kg IP): 90 min; clearance ([3]; 4 hour time-course PK study): cleared more slowly; affinity for 5-HT2B (5-HT2B): significant affinity; affinity for 5-HT1A (5-HT1A): significant affinity; affinity for D3 dopaminergic receptor (D3 dopaminergic receptor): significant affinity; compound remaining after 60 minutes in mouse liver microsomes [4]: 62.8%
O=C(NCCNCC(O)COc1ccc(O)cc1)N1CCOCC1 (stereo not shown) [Xamoterol, reference compound]	significant reduction	did not produce significant effects	2830 ± 517 ng·h/mL	7440 ± 730 ng/mL	2450 ± 601 ng·h/mL	22200 ± 4030 ng/mL	1.7%	clearance ([3]; in vivo): cleared rapidly
